Test results: patent publication US9981944B2, “GDF-8 inhibitors” (Rigel Pharmaceuticals, Inc., priority 2015, dated 2018)
pIC50: −log10 of the molar value.

Key:
HIS-TGFβR1 T204D = HIS-TGFβR1 T204D (Homo sapiens (Human), UniProt P36897, T204D); experiment: HTRF probe displacement assay, HIS-TGFβR1 T204D; format: binding; conditions: 1 nM HIS-TGFβR1 T204D, 1 hour at room temperature, read-out: TGFBR1T204D IC50
Experimental: (§1) Compounds were dissolved at 10 mM in dimethylsulfoxide (DMSO) and evaluated at eleven concentrations. IC50 values were derived by non-linear regression analysis.

HIS-TGFβR2 WT = HIS-TGFβR2 WT (Homo sapiens (Human), UniProt P37173); experiment: HTRF probe displacement assay, HIS-TGFβR2 WT; format: binding; conditions: 1 nM HIS-TGFβR2 WT, 1 hour at room temperature, read-out: TGFBR2WT IC50
Sequence of HIS-TGFβR2 WT (P37173 23-567): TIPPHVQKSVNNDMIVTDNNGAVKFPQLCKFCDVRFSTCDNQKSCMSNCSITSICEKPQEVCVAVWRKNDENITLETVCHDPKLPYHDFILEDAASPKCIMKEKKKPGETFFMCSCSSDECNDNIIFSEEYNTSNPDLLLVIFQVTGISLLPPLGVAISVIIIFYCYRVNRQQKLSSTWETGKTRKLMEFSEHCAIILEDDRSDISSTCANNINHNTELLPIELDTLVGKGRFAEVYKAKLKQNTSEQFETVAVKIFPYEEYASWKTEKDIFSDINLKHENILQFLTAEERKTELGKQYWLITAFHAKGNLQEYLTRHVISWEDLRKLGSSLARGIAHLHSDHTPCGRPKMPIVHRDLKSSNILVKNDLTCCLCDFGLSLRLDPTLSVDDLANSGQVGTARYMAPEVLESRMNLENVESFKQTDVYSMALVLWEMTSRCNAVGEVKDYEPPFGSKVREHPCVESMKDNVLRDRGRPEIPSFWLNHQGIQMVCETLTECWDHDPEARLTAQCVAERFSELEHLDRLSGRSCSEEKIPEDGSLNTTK
Experimental: as §1

Sequence of HIS-TGFβR1 T204D (P36897 34-503 T204D): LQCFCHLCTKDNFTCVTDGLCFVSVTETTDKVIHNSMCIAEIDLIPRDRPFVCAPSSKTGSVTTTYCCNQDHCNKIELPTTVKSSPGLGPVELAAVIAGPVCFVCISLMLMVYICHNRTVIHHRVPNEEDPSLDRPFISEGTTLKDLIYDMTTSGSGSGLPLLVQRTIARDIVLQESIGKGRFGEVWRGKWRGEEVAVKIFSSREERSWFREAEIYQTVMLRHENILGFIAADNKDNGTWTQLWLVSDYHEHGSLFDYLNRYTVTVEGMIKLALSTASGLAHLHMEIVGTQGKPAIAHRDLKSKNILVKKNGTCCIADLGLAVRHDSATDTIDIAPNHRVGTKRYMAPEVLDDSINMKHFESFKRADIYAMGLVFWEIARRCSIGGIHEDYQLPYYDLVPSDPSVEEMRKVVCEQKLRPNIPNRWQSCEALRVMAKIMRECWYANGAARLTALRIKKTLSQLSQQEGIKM

SMILES | pIC50 (HIS-TGFβR1 T204D) | pIC50 (HIS-TGFβR2 WT)
Cc1cccc(-c2ncccc2-c2ccc3ncc(C(N)=O)n3n2)n1 [Compound 58, 6-(6′-methyl-[2,2′-bipyridin]-3-yl)imidazo[1,2-b]pyridazine-3-carboxamide] | 7.72 | < 4.82
N#Cc1cnc2ccc(-c3cccnc3-c3ccc(F)cn3)nn12 [Compound 53, 6-(5′-fluoro-[2,2′-bipyridin]-3-yl)imidazo[1,2-b]pyridazine-3-carbonitrile] | 6.22 | < 4.82
FC(F)c1cccc(-c2ncccc2-c2ccc3[nH]nc(C(F)F)c3c2)n1 [Compound 118, 3-(difluoromethyl)-5-(6′-(difluoromethyl)-[2,2′-bipyridin]-3-yl)-1H-indazole] | 6.37 | < 4.82
Nc1ncnc2ccc(-c3cccnc3-c3cccc(C4CC4)n3)cc12 [Compound 111] | 8.70 | < 4.82
Cc1nc(-c2ncccc2-c2ccc3nccnc3c2)ccc1F [Compound 112, 6-(5′-fluoro-6′-methyl-[2,2′-bipyridin]-3-yl)quinoxaline] | 7.92 | < 4.82
N#Cc1cnc2ccc(-c3cccnc3-c3cccc(OCc4ccccc4)n3)cn12 [Compound 38, 6-(6′-(benzyloxy)-[2,2′-bipyridin]-3-yl)imidazo[1,2-a]pyridine-3-carbonitrile] | 5.72 | < 4.82
CC(=O)Nc1ccc(-c2ccc3ncc(C(N)=O)n3c2)c(-c2cccc(C)n2)n1 [Compound 95, 6-(6-acetamido-6′-methyl-[2,2′-bipyridin]-3-yl)imidazo[1,2-a]pyridine-3-carboxamide] | 6.45 | < 4.82
Cc1nc(-c2ncccc2-c2ccn3ncc(C(=O)NC4CC4)c3n2)ccc1F [Compound 132, N-cyclopropyl-5-(5′-fluoro-6′-methyl-[2,2′-bipyridin]-3-yl)pyrazolo[1,5-a]pyrimidine-3-carboxamide] | 7.44 | < 4.82
Cc1nc(-c2ncccc2-c2ccc3[nH]ncc3c2)ccc1F [Compound 117, 5-(5′-fluoro-6′-methyl-[2,2′-bipyridin]-3-yl)-1H-indazole] | 8.70 | < 4.82
Nc1ncnc2ccc(-c3cccnc3-c3cccc(C4CC4)n3)nc12 [Compound 106, 6-(6′-cyclopropyl-[2,2′-bipyridin]-3-yl)pyrido[3,2-d]pyrimidin-4-amine] | 8.40 | < 4.82
O=C(O)c1cnn2ccc(-c3cccnc3-c3cccc(C(F)(F)F)n3)nc12 [Compound 124, 5-(6′-(trifluoromethyl)-[2,2′-bipyridin]-3-yl)pyrazolo[1,5-a]pyrimidine-3-carboxylic acid] | 6.86 | < 4.82
Cc1nc(-c2ncccc2-c2ccc3ncc(C#N)n3n2)ccc1F [Compound 61, 6-(5′-fluoro-6′-methyl-[2,2′-bipyridin]-3-yl)imidazo[1,2-b]pyridazine-3-carbonitrile] | 7.49 | < 4.82
N#Cc1cnc2ccc(-c3cccnc3-c3cc(F)ccn3)nn12 [Compound 59, 6-(4′-fluoro-[2,2′-bipyridin]-3-yl)imidazo[1,2-b]pyridazine-3-carbonitrile] | 6.04 | < 4.82
Cc1ccc(-c2ccc3ncc(C(N)=O)n3c2)c(-c2cccc(C(F)F)n2)n1 [Compound 88, 6-(6′-(difluoromethyl)-6-methyl-[2,2′-bipyridin]-3-yl)imidazo[1,2-a]pyridine-3-carboxamide] | 7.89 | < 4.82
Cc1cccc(-c2nc(C(F)(F)F)ccc2-c2ccc3ncc(C(N)=O)n3c2)n1 [Compound 90, 6-(6′-methyl-6-(trifluoromethyl)-[2,2′-bipyridin]-3-yl)imidazo[1,2-a]pyridine-3-carboxamide] | 7.08 | < 4.82
COC(=O)c1ccnc(-c2cccc(C)n2)c1-c1ccc2ncc(C#N)n2c1 [Compound 91, methyl 3-(3-cyanoimidazo[1,2-a]pyridin-6-yl)-6′-methyl-[2,2′-bipyridine]-4-carboxylate] | 6.19 | < 4.82
O=C(O)c1cnn2ccc(-c3cccnc3-c3cccc(C(F)F)n3)nc12 [Compound 135, 5-(6′-(difluoromethyl)-[2,2′-bipyridin]-3-yl)pyrazolo[1,5-a]pyrimidine-3-carboxylic acid] | 6.97 | < 4.82
Cc1cccc(-c2ncccc2-c2ccc3ncc(C(=O)O)n3n2)n1 [Compound 73, 6-(6′-methyl-[2,2′-bipyridin]-3-yl)imidazo[1,2-b]pyridazine-3-carboxylic acid] | 7.59 | < 4.82
CCOC(=O)c1cnn2ccc(-c3cccnc3-c3cccc(C(F)(F)F)n3)nc12 [Compound 123, ethyl 5-(6′-(trifluoromethyl)-[2,2′-bipyridin]-3-yl)pyrazolo[1,5-a]pyrimidine-3-carboxylate] | 7.34 | < 4.82
N#Cc1cnc2ccc(-c3cccnc3-c3cccc(C(F)F)n3)cn12 [Compound 28, 6-(6′-(difluoromethyl)-[2,2′-bipyridin]-3-yl)imidazo[1,2-a]pyridine-3-carbonitrile] | 8.05 | < 4.82
Cc1cccc(-c2ncccc2-c2ccc3ncc(C#N)n3n2)n1 [Compound 57, 6-(6′-methyl-[2, 2′-bipyridin]-3-yl) imidazo[1,2-b]pyridazine-3-carbonitrile] | 7.46 | < 4.82
Nc1ncnc2ccc(-c3cccnc3-c3ccc(F)cn3)nc12 [Compound 104, 6-(5′-fluoro-[2,2′-bipyridin]-3-yl)pyrido[3,2-d]pyrimidin-4-amine] | 7.38 | < 4.82
Cc1cccc(-c2ncccc2-c2ccn3nccc3n2)n1 [Compound 138, 5-(6′-methyl-[2,2′-bipyridin]-3-yl)pyrazolo[1,5-a]pyrimidine] | 8.30 | < 4.82
Cc1cccc(-c2ncc(F)cc2-c2ccc3ncc(C#N)n3c2)n1 [Compound 81, 6-(5-fluoro-6′-methyl-[2,2′-bipyridin]-3-yl)imidazo[1,2-a]pyridine-3-carbonitrile] | 7.80 | < 4.82
Cc1cc(C)nc(-c2ncccc2-c2ccc3ncc(C(N)=O)n3c2)c1 [Compound 42, 6-(4′,6′-dimethyl-[2,2′-bipyridin]-3-yl)imidazo[1,2-a]pyridine-3-carboxamide] | 7.68 | < 4.82
Cc1cccc(-c2ncccc2-c2ccn3ncc(C#N)c3n2)n1 [Compound 119, 5-(6′-methyl-[2,2′-bipyridin]-3-yl)pyrazolo[1,5-a]pyrimidine-3-carbonitrile] | 7.23 | < 4.82
Cc1nc(-c2ncccc2-c2ccc3ncnc(N)c3n2)ccc1F [Compound 103, 6-(5′-fluoro-6′-methyl-[2,2′-bipyridin]-3-yl)pyrido[3,2-d]pyrimidin-4-amine] | 8.40 | < 4.82
Cc1cccc(-c2nc(C(F)(F)F)ccc2-c2ccc3ncc(C#N)n3c2)n1 [Compound 89, 6-(6′-methyl-6-(trifluoromethyl)-[2,2′-bipyridin]-3-yl)imidazo[1,2-a]pyridine-3-carbonitrile] | 5.47 | < 4.82
Cc1ccc(-c2ncccc2-c2ccc3ncc(C#N)n3n2)nc1 [Compound 55, 6-(5′-methyl-[2,2′-bipyridin]-3-yl)imidazo[1,2-b]pyridazine-3-carbonitrile] | 5.28 | < 4.82
